Test results taken from patent publication US20250320246A1, “3-AZASTEROID COMPOUNDS FOR THE TREATMENT OF DISEASES RELATED TO MITROCHONDRIAL FUNCTION” (NZP UK LIMITED, priority 2022, published 2025).
pEC50: −log10 of the molar value.

How the values were obtained:
[1] = system: sporadic PD patient fibroblasts; test: Mitochondrial membrane potential (MMP, TMRM) in sporadic PD patient fibroblasts; assay type: cell-based, human; conditions: Homo sapiens, Fibroblast, 24 h, 3 sporadic PD patient fibroblasts
[2] = system: iNeurons from sPD patients; test: Mitochondrial reactive oxygen species (ROS) in iNeurons from sPD patients; assay type: cell-based, human; conditions: sPD patient iNeurons treated; untreated sPD patients 115
Method: (§1) The fibroblasts lines and iNPC lines have previously been characterised and published in Carling et al, 2020.
(§2) Briefly, iNPCs are plated in a 6-well plate and cultured for 2 days in DMEM/F-12 medium with Glutamax™ supplemented with 1% NEAA, 2% B27 (Gibco) and 2.5 μM of DAPT. On day 3, DAPT is removed and the medium is supplemented with 1 μM smoothened agonist (SAG) and FGF8 (75 ng/ml) for additional 10 days. Neurons are replated at this stage. Subsequently SAG and FGF8 are withdrawn and replaced with BDNF (30 ng/ml), GDNF (30 ng/ml), TGF-b3 ([…]) and dcAMP (2 mM, Sigma) for 15 days, as previously described Schwartzentruber et al, 2020 and Carling et al, 2020. Dopaminergic neurons were treated with compounds at concentrations of 0.1 nM, 1 nM, 3 nM, 10 nM, 30 nM and 100 nM dosing every 3 days for the last 12 days of differentiation.
iNeurons were treated every 3 days for the last 12 days of the differentiation protocol. Cells are plated in 96 well plates; for live imaging cells are incubated for one hour at 37° C. with 80 nM tetramethlyrhodamine (TMRM), 1 μM LysoTracker® Green (Invitrogen) and Hoechst Stain solution (Sigma) at 1 μM before imaging using Opera Phenix™. Cellular ATP measurements are undertaken using ATPlite kit (Perkin Elmer) as per manufacturer's instructions. Mitochondrial reactive oxygen species generation was assessed using mitochondrial NpFR2 (probe; a kind gift from Dr Liz New, University of Sydney, Australia) at 20 μM and Hoechst stain solution at 1 μM for 30 mins at 37° C., then the dyes are removed and cells images using Opera Phenix™. Images generated from the live imaging experiments were analysed using Harmony® (Perkin Elmer software). We developed protocols in order to segment nucleus, cell boundary and processes, mitochondria, lysosomes, autophagosomes. We only analysed the z projection images collected from the z stacks.

[3] = system: iNeurons from sPD patients; test: Neuronal morphology (elongation) in iNeurons from sPD patients; assay type: cell-based, human
Method: as §1, §2
(§3) Cells are plated into 96 well plates and fixed using 4% paraformaldehyde for 30 minutes. After PBS washes cells are permeabilised using 0.1% Triton™ X-100 for 10 minutes and blocked using 5% goat serum for 1 hour. Cells are incubated with primary antibodies βIII tubulin (Millipore); activated caspase 3 (Cell Signaling); at 4° C. for 16 hours. Cells are washed using PBS-Tween® and incubated with Alexa Fluor™-conjugated secondary antibodies 488 and 568 (Invitrogen) and Hoescht (Sigma) 1 μM prior to imaging. Imaging was performed using the Opera Phenix™ high content imaging system (Perkin Elmer).
iNeurons were treated every 3 days for the last 12 days of the differentiation protocol. […] Mitochondrial reactive oxygen species generation was assessed using mitochondrial NpFR2 (probe; a kind gift from Dr Liz New, University of Sydney, Australia) at 20 μM and Hoechst stain solution at 1 μM for 30 mins at 37° C., then the dyes are removed and cells images using Opera Phenix™. Images generated from the live imaging experiments were analysed using Harmony® (Perkin Elmer software). […] We only analysed the z projection images collected from the z stacks.

[4] = system: iNeurons from sPD patients; test: Activated caspase 3 levels (apoptosis) in iNeurons from sPD patients; assay type: cell-based, human
Method: as §1, §2, §3

[5] = system: mitochondrial respiratory chain complex I; test: Complex I assay in mouse whole brain homogenate after IV dosing; assay type: in vivo; conditions: wild type mouse, 2 mg/kg IV
Method: Ex vivo mice brain was homogenated in a buffer of 250 mM sucrose, 20 mM HEPES, 3 mM EDTA, pH 7.5 at 4° C. Homogenisation was carried out using a Dounce homogenizer, for cortex samples, and by repetitive passage through a 0.5 mm syringe for isolated striatum. Samples were then incubated with 30 μl of detergent from the AbCam colorimetric Complex I assay kit on ice for 20 minutes. Samples are then centrifuged at 13,000 rpm for 30 mins. Triplicate samples per condition were blocked using the kit blocking buffer on the AbCam colorimetric Complex I assay kit plate for 3 hours. Samples are then washed using the kit wash buffer 3 times before the addition of the kit assay buffer containing NADH and colorimetric dye. The assay plate is read on a plate reader in a kinetic assay programme reading 450 nm in a 30 second interval for 50 minutes.
By 12 hours post injection complex I activity began to reduce again and was elevated by 98% above control. By 24 hours post injection, complex I activity was still elevated by 35% above control levels.

[6] = sPD derived dopaminergic neurons

In the case of `C[C@H](CCCC(=O)O)[C@H]1CC[C@H]2[C@@H]3[C@@H](O)C[C@@H]4CNCC[C@]4(C)[C@H]3CC[C@]12C.Cl` [Compound 28b, 3-Aza-7β-hydroxy-25-homo-5β-cholan-25-oic acid hydrochloride], the pEC50 ([1]; 8-point range 0.06 nM-300 nM) was 8.39, the Emax ([1]; max response with highest dose of compound (300 nM), read-out: MMP % of vehicle, top %) was 101% and the activity at 60 pM ([1]; max response with lowest dose of compound (0.06 nM), read-out: MMP % of vehicle, bottom %) was 92.8%. For the same compound, the “ROS normalisation (% of controls)” value [2] was 109 % of controls, the “neuronal morphology, in words” value [3, 6] was “improving neuronal morphology” and the “Neuronal morphology (elongation; % controls)” value ([3]; sPD patient iNeurons treated, untreated sPD patients 48) was 68 % controls. For the same compound, the “apoptosis levels (as measured by activated caspase 3 levels), in words” value [4, 6] was “reducing apoptosis levels”, the “Activated caspase 3 levels” value ([4]; sPD patient iNeurons treated, untreated sPD patients 162) was 138 % of level in iNeurons from Controls and the “complex I activity” value ([5]; 4 and 8 hours post injection) was “remained elevated to a similar extent”. For the same compound, the “complex I activity increase” value ([5]; 1 hour after dosing) was 125%, the “complex I activity elevated above control” value ([5]; 12 hours post injection) was 98% and the “complex I activity elevated above control levels” value ([5]; 24 hours post injection) was 35%.
